Measured values from patent US10682409B2, “Therapeutic treatment” (priority 2012, dated 2020).

Experiments:
[1] = Example 2 case study: child with ADHD on methylphenidate, then Periactin (height, weight, percentiles, attentiveness); type: in vivo, human
From the text: Case study: A child was presented by their parents for symptoms of attention deficit hyperactivity disorder. Their size at evaluation was 4′1¾″ and 50 lbs, corresponding to the 81st and 50th percentiles when compared to girls their age. […] At three months following the initiation of treatment for ADHD, the child was 4′2⅞″ and 50½ lbs, corresponding to the 85th and 34rd percentiles when compared to girls their age. At one year, they were 4′4⅜″ and 53 lbs, corresponding to the 84th and 36th percentiles when compared to girls their age. At two years they were 4′5¾″ and 54 lbs, corresponding to the 72nd and 17th percentiles when compared to girls their age. At four years of treatment they were 4′7⅜″ and 59 lbs, corresponding to 70th and 14th percentiles when compared to girls their age. At five years of treatment they were 4′9⅞″ and 64½ lbs, corresponding to 59th and 7th percentiles when compared to girls their age.
The child was then prescribed Periactin at a dosage of 2 mg b.i.d. to attempt to stimulate appetite. The dose was taken in the morning and then in the afternoon. After one year they were 4′11½″ and 72½ lbs, corresponding to 33rd and 5th percentiles when compared to girls their age. The child was then prescribed Periactin at a dose of 4 mg b.i.d. After two months on this dose, they were 5′¼″ and 76 lbs, corresponding to 37th and 8th percentiles when compared to girls their age. At 8 months on this dose, they were 5′½″ and 80 lbs, corresponding to 41st and 8th percentiles when compared to girls their age. At one year on this dose, they were 5′2¾″ and 89½ lbs, corresponding to 51st and 17th percentiles when compared to girls their age. At 18 months on this dose, they were 5′3⅝″ and 99½ lbs, corresponding to 56th and 30th percentiles when compared to girls their age. Additionally, the attentiveness of the child increase following the prescription of Periactin as they increased their food intake during the day.

[2] = cited from earlier work
[3] = Examples 3-11: weight and height (velocity, percentile curve, course) of ADHD Patients A-H; type: in vivo, human
Procedure: In an embodiment, a therapeutically effective amount of a therapeutic compound disclosed herein increases the weight or height of an individual is determined by an increase in the individual's weight or height velocity as compared to an individual nor receiving a therapeutic compound for appetite reduction. In an embodiment, weight and/or height velocity can be calculated by taking measurements of height and/or weight of an individual over a period of time and measuring an increase or decrease in an individual's height and/or weight over the period of time. In an embodiment, weight velocity is calculated by taking three time points, time 0 upon initiation of medication to treat ADHD, time 1 addition of an appetite stimulant, time 2 the last data point after initiation of combination treatment. In an embodiment, a formula to calculate weight and height velocity for stimulant alone is (weightT1−weight T0)/days from Time 0 to time 1. In an embodiment, a formula to calculate weight velocity for combination treatment is (weightT2−weight T1)/days from time 1 to time 2. In an embodiment, to evaluate whether weight velocity increased after addition of an appetite stimulant, the weight velocity of time 0 to time 1 is compared to the weight velocity from time 1 to time 2. In an embodiment, height velocity is calculated by taking three time points, time 0 upon initiation of medication to treat ADHD, time 1 addition of an appetite stimulant, time 2 the last data point after initiation of combination treatment. The formula to calculate height velocity for stimulant alone is (weightT1−weight T0)/days from Time 0 to time 1. The formula to calculate height velocity for combination treatment is (weightT2−weight T1)/days from time 1 to time 2. In an embodiment, to evaluate whether height velocity increased after addition of an appetite stimulant, the height velocity of time 0 to time 1 is compared to the height velocity from time 1 to time 2.
Eight patients, identified as patients A-H, that came in suffering from ADHD were treated for ADHD. […] Each patient was then prescribed an appetite simulant to be taken along with the amphetamine or methylphenidate. The patients' weight, height and attentiveness were then followed during the course of treatment.
The age range of the patients was from 6-15 years of age, with a mean age at the start of treatment for ADHD of 8.4 years of age. The mean age at the start of the combination treatment wherein the patient was administered an amphetamine or methylphenidate and an appetite stimulant was 10.3 years of age. The mean treatment period for the eight patients was 1,108 days with a mean of 2.55 ADHD medication changes during the treatment period. Attentiveness in the eight patients was measured using CGI-S and CGI-I. Patients weight and height velocity were measured to identify a difference in weight and height gain prior to and after addition of an appetite stimulant to the treatment for ADHD. Weight velocity was calculated by taking three time points, time 0 upon initiation of medication to treat ADHD, time 1 addition of an appetite stimulant, time 2 the last data point after initiation of combination treatment. The formula to calculate weight velocity for stimulant alone is (weightT1−weight T0)/days from Time 0 to time 1. The formula to calculate weight velocity for combination treatment is (weightT2−weight T1)/days from time 1 to time 2.

[4] = cited from earlier work; remark: listed apart in the source
[5] = Periactin 2 mg b.i.d., after one year
[6] = Periactin 4 mg b.i.d., 8 months
[7] = Periactin 4 mg b.i.d., 18 months
[8] = Periactin 4 mg b.i.d., one year
[9] = Periactin 4 mg b.i.d., two months
[10] = Patient A, Periactin 4 mg b.i.d. added to Concerta from day 661, FIG. 4
[11] = Patient G, Focalin XR 15 mg and Periactin 4 mg b.i.d. from day 546, FIG. 16

With `CN1CCC(=C2c3ccccc3C=Cc3ccccc32)CC1.Cl` [Periactin, 4-(5H-dibenzo[a,d]cyclohepten-5-ylidene)-1-methylpiperidine hydrochloride] the “height percentile compared to girls their age” value (“height percentile” for short) [1, 5] was 33 percentile, the “weight percentile compared to girls their age” value (“weight percentile” below) [1, 5] was 5 percentile and the “height percentile” value [1, 6] was 41 percentile. The weight [1, 6] was 80 lbs, the “weight percentile” value [1, 6] was 8 percentile and the “height percentile” value [1, 7] was 56 percentile. The “weight percentile” value [1, 7] was 30 percentile, the “height percentile” value [1, 8] was 51 percentile and the “weight percentile” value [1, 8] was 17 percentile. The “height percentile” value [1, 9] was 37 percentile, the weight [1, 9] was 76 lbs and the “weight percentile” value [1, 9] was 8 percentile. For the same molecule, the attentiveness ([1]; following the prescription of Periactin) was “increase”, the “effect in children suffering from ADHD (anecdotal evidence)” value ([2]; ADHD drug (amphetamine or methylphenidate) plus 4-8 mg cyproheptadine at night (Daviss 2004)) was “weight gain and excessive sleep” and the “effect on weight in studies” value ([2]; non-human animals or humans (Orthen-Gambill 1988)) was “weight gain”. The side effects ([2]; oral monotherapy for allergy) was “weight gain and drowsiness”, the height course [3, 10] was “increase in height began to accelerate” and the weight course [3, 10] was “began to gain weight”. For the same molecule, the weight course ([3]; Patient B, Focalin XR 15 mg and Periactin 4 mg b.i.d. from day 865, FIG. 6) was “began to gain weight”, the weight course ([3]; Patient B, Focalin XR 30 mg with Periactin, FIG. 6) was “continued to increase” and the weight course ([3]; Patient C, Concerta 36 mg and Periactin 4 mg b.i.d. from day 350, FIG. 8) was “began to gain weight”. The weight course ([3]; Patient D, Concerta 18 mg and Periactin 2 mg in the morning from day 23, FIG. 10) was “began to gain weight at an accelerated pace”, the weight course ([3]; Patient D, Concerta increased to 27 mg with Periactin) was “only a slight decrease in the ability of Patient D to continue to gain weight” and the height course ([3]; Patient D, combination of Concerta and Periactin, lagged initiation, FIG. 10) was “increased the growth rate”. For the same molecule, the weight course ([3]; Patient E, Focalin XR 20 mg and Periactin 4 mg in the morning, FIG. 12) was “began to gain weight at an accelerated pace”, the “pace of weight gain” value ([3]; Patient E, Periactin administered b.i.d. from day 836 with Focalin XR) was “increased” and the weight course ([3]; Patient F, Daytrana patch 30 mg and Periactin 2 mg b.i.d. from day 1547, FIG. 14) was “began to gain weight at an accelerated pace”. For the same molecule, the “pace of weight gain” value ([3]; Patient F, Periactin increased to 4 mg b.i.d. on day 1950 with Daytrana patch) was “increased”, the height course [3, 11] was “began to gain height at an accelerated pace” and the weight course [3, 11] was “continued to gain weight at a good pace”. The weight course ([3]; Patient H, Vvyanase 40 mg and Periactin 2 mg b.i.d. from day 109, FIG. 18) was “began to gain weight”, the “appetite when the dose of the ADHD drug was increased” value ([3]; individual patient of the example (B, D, E, F) on Periactin) was “without a concomitant loss of appetite” and the “time to reach peak plasma levels” value ([4]; after administration) was 1 to 3 h. For the same molecule, the half-life ([4]; in vivo) was 8 h.
